Experimental data from PMC3397408, “Natural and synthetic cathelicidin peptides with anti-microbial and anti-biofilm activity against Staphylococcus aureus” (BMC Microbiology, 2011).
Where two headings read alike, the source gives them in different places. Where no end group is shown, it is not given here.

Tests used:
[1] = system: S. aureus attachment to 96-well plate; test: Biofilm attachment assay; type: cell-based, Staphylococcus aureus; conditions: peptide 1 μg/ml, 1 h, 37°C, TSB culture OD600 ~1.0, n = 16, Student's t test
Method: The attachment of Staphylococcus spp. to solid surfaces is largely seen as an essential step in the formation of biofilm. Since most of the peptides tested in our biofilm assays were capable of inhibiting biofilm formation (except for scrambled LL-37), we investigated a possible mechanism for this action. We incubated scrambled LL-37 (negative control), LL-37, D-LL-37, NA-CATH, and NA-CATH:ATRA1-ATRA1 peptides with S. aureus in a 1 hr attachment assay at peptide concentrations of 1 ug/ml, examining for the initial adherence to the wells of the 96 well tissue-culture treated plate.
Figure 3 Attachment assay of S. aureus in the presence of peptide. We tested scrambled LL-37 (negative control), LL-37, D-LL-37, NA-CATH, and NA-CATH:ATRA1-ATRA1 against S. aureus (1 h, 37°C) at 1 μg/ml, only allowing for the initial adherence to the wells.
Biofilm attachment assays were performed in a 96-well microtiter plate (BD Falcon 353072), as previously described. Overnight cultures of S. aureus were grown in TSB to an optical density (600nm) of ~1.0. 200 μl culture was added to the wells, followed by no peptide, scrambled LL-37 , LL-37, D-LL-37, NA-CATH, or NA-CATH:ATRA1-ATRA1 at 1 μg/ml. […] The wells were washed and OD600 measurements were taken, as in the biofilm production experiments, and the average absorbance for each treatment was determined (n = 16).

[2] = system: S. aureus biofilm formation; conditions: peptide 10 μg/ml, TSB, 24 h, 37°C, polystyrene 96-well plate, crystal violet 570 nm, n = 6, relative to 0 peptide control
Method: (§1) C. […] Growth (absorbance at 600 nm) is indicated by gray bars with "0 peptide" control set to 100%. Biofilm detection on a polystyrene 96-well plate at 37°C after 24 h of growth in TSB was detected as the absorbance of crystal violet stain (570 nm). Percent biofilm production is indicated by black bars (n = 6), relative to "0 peptide" control. Each experiment is a representative of at least two independent trials. Error bars indicate the standard deviation from the mean. The asterisk (*) indicates statistically different than the positive control (p < 0.01).
(§2) Biofilm production was measured as previously described with the following modifications. […] The positive control is S. aureus in TSB with no peptide. Six wells were used for each peptide concentration (n = 6). After 24 h, the optical densities (OD) of the wells were taken at 600nm to quantify […]. The biofilm production was measured using the crystal violet stain technique.
All experiments were repeated at least twice, with a representative experiment shown.

[3] = system: erythrocytes; conditions: examined up to 200 μg/ml; cited from earlier work
Method: The hemolytic activity of each of the peptides was determined using 2% horse erythrocytes as previously described.

[4] = system: S. aureus; test: Bacterial growth / MIC in TSB; type: cell-based, Staphylococcus aureus; conditions: TSB (relatively high salt), peptide concentrations up to the EC50 found in 10 mM sodium phosphate
Method: as §1, §2

[5] = system: S. aureus (ATCC 25923)
Method: S. aureus (ATCC 25923, American Type Culture Collection, Manassas, VA) was grown in Nutrient Broth (Difco Laboratories, Detroit, Mich.) at pH 7, 37°C, 24 h with shaking at 200 rpm. The overnight culture was frozen with 20% glycerol and stored at -80°C. The frozen stock was enumerated (CFU/ml) by dilution plating and growth on Nutrient Agar plates.
For anti-microbial assays, frozen enumerated aliquots were thawed and gently mixed immediately before use. In a 96-well plate (BD Falcon 353072), 1 × 10^5 CFU per well bacteria were incubated with different peptide concentrations (in serial dilutions of 1:10 across the plate) in a solution of buffer containing sterile 10 mM sodium phosphate (pH 7.4) and incubated (3 h, 37°C). Negative control wells contained bacteria with no peptide. Serial dilutions were then carried out in sterile 1x PBS (Fisher Scientific) (pH 7) and plated in triplicate on Nutrient Agar plates, incubated (37°C, 24 h) and counted. […] The EC50 was calculated as previously described.
Each experiment was repeated at least twice, and a representative experiment is shown, for clarity. Errors were reported based on the standard deviation from the mean of the log10 EC50 values. 95% confidence intervals were used to determine whether points were statistically different at p = 0.05.

Compound	attachment of S. aureus to the wells [1]	inhibition of biofilm formation [2]	hemolytic activity [3]	bacterial growth (OD600 at 24 hours) [4]	EC50 ([5]; EC50 in μg/ml converted with the molecular weight of the TFA salt of the peptide)	EC50 ([5]; S. aureus ATCC 25923, 1 × 10^5 CFU per well, 3 h, 37°C, 10 mM sodium phosphate (pH 7.4), % survival by CFU counts, plated in triplicate, representative experiment)	fold change of activity against S. aureus, ATRA-1A compared to ATRA-1 ([5]; p > 0.05)
CC[C@H](C)[C@H](NC(=O)[C@H](CCCCN)NC(=O)[C@H](CCC(=O)O)NC(=O)[C@H](CCCCN)NC(=O)[C@H](CO)NC(=O)[C@H](CCCCN)NC(=O)[C@H](CCCNC(=N)N)NC(=O)[C@H](Cc1ccccc1)NC(=O)[C@H](Cc1ccccc1)NC(=O)[C@H](CC(=O)O)NC(=O)CNC(=O)[C@H](CC(C)C)NC(=O)[C@@H](N)CC(C)C)C(=O)NCC(=O)N[C@@H](CCCCN)C(=O)N[C@@H](CCC(=O)O)C(=O)N[C@@H](Cc1ccccc1)C(=O)N[C@@H](CCCCN)C(=O)N[C@@H](CCCNC(=N)N)C(=O)N[C@H](C(=O)N[C@H](C(=O)N[C@@H](CCC(N)=O)C(=O)N[C@@H](CCCNC(=N)N)C(=O)N[C@H](C(=O)N[C@@H](CCCCN)C(=O)N[C@@H](CC(=O)O)C(=O)N[C@@H](Cc1ccccc1)C(=O)N[C@@H](CC(C)C)C(=O)N[C@@H](CCCNC(=N)N)C(=O)N[C@@H](CC(N)=O)C(=O)N[C@@H](CC(C)C)C(=O)N[C@H](C(=O)N1CCC[C@H]1C(=O)N[C@@H](CCCNC(=N)N)C(=O)N[C@H](C(=O)N[C@@H](CCC(=O)O)C(=O)N[C@@H](CO)C(=O)O)[C@@H](C)O)C(C)C)[C@@H](C)CC)C(C)C)[C@@H](C)CC [LL-37]	significantly decreased	~ 40%	similarly low levels	not decreased			
KRAKKFFKKLK-NH2 [ATRA-1A]					310 nM	0.73 µg/mL	1.4 fold
